# Data taken from PMC10450149, “Antennal transcriptome analysis of odorant-binding proteins and characterization of GOBP2 in the variegated cutworm Peridroma saucia” (Frontiers in Physiology, 2023).
# Several values for one entry are separate records, joined by “and”; a condition that tells them apart may be missing. Equal values may be shown once.
# How the values were obtained:
# [1] = target: recombinant PsauGOBP2; experiment: Competitive fluorescence binding assay: displacement of 1-NPN from recombinant PsauGOBP2; set-up: species or system Peridroma saucia; conditions: means ± SE, n = 3; for IC50: PsauGOBP2 and 1-NPN, IC50 > 30 μM considered no binding affinity, read-out: IC50 (concentration of ligand halving the initial fluorescence value of 1-NPN); for Ki: Ki = [IC50]/(1 + [1-NPN]/K1-NPN), read-out: Ki (calculated dissociation constant)
# Method: (§1) For the expression of recombinant PsauGOBP2, pET-30b containing the sequence encoding mature PsauGOBP2 was used to transform BL21 E. coli cells. Protein expression was induced by the addition of IPTG (final concentration 0.4 mM) when the OD600 value of cell culture reached about 0.8. Cells cultured for further 2–4 h at 37°C were harvested by centrifugation. PsauGOBP2 was present as inclusion bodies. 10 mL of 8 M urea and 1 mM DTT in Tris buffer (50 mM, pH 7.4) were then used to solubilise the inclusion body pellet (from 1 L of culture). The dissolved protein was dialyzed against 1 L of Tris buffer (50 mM, pH 7.4). The recombinant protein was purified on the anion exchange resins QFF, following standard protocols previously adopted for other moth OBPs ([Sun et al., 2012]; [Sun et al., 2021]).
# Binding affinities of odorants to PsauGOBP2 were measured by competitive binding assays. A panel of 28 compounds (competitors) including the P. saucia female sex pheromone components Z11-16: Ac and Z9-14: Ac and 26 host plant volatiles were used in the assay. The CAS number, source, and purity of these compounds were listed in Supplementary Table S3. A solution of PsauGOBP2 and 1-NPN, both at the concentration of […], was titrated with 1 mM of each competitor (dissolved in methanol) at a final concentration of 10 µM (sex pheromones) or 20 µM (host plant volatiles). The dissociation constants (Ki) of competitors to PsauGOBP2 were calculated using the equation: Ki = [IC50]/(1 + [1-NPN]/K1-NPN), where [IC50] is the concentration of the competitor halving (50%) the initial fluorescence value (100%), [1-NPN] is the free concentration of 1-NPN, and K1-NPN is the dissociation constant of the protein-1-NPN complex.
# [2] = target: PsauGOBP1; set-up: method as in Sun et al., 2021; conditions: binding to PsauGOBP1; ref Sun et al., 2021; cited from earlier work
# [3] = target: recombinant PsauGOBP2; experiment: Fluorescence binding assay: titration of recombinant PsauGOBP2 with the fluorescent probe 1-NPN; set-up: species or system Peridroma saucia; conditions: 2 mM protein in 50 mM Tris-HCl pH 7.4, titrated with 1-NPN to 20 µM; excitation 337 nm; means +SE, n = 3; single binding site; read-out: K1-NPN (dissociation constant of 1-NPN to PsauGOBP2)
# Method: as §1
# The fluorescence binding assays were conducted on a Hitachi F-2710 with a 1 cm light path quartz cuvette. To measure the affinity of the fluorescent probe 1-NPN (N-phenyl-1-naphthylamine) to PsauGOBP2, a […] solution of the protein in 50 mM Tris-HCl, pH 7.4, was titrated with aliquots of 1 mM 1-NPN in methanol to a final concentration of 20 µM. The probe was excited at 337 nm, and emission spectra were recorded between 380 and 460 nm. The dissociation constant of 1-NPN (K1-NPN) to PsauGOBP2 was obtained by processing the data with GraphPad Prism 6.0.
# [4] = remaining 1-NPN fluorescence at Max Conc 20 (20 µM, host plant volatiles)
# [5] = remaining 1-NPN fluorescence at Max Conc 10 (10 µM, sex pheromones)
compound,measurement,setting,value
C=C(C)[C@H]1CC=C(C)CC1 [D-Limonene],IC50,[1],> 30 µM
same,Fluorescence at max (%),[1]; [4],85 ± 5%
CC(C)=CCC/C(C)=C/CC/C(C)=C/CO [Farnesol],Ki,[2],6.4 µM
same,IC50,[1],> 30 µM
same,Fluorescence at max (%),[1]; [4],100 ± 3%
"C=C1CC/C=C(\C)CC[C@@H]2[C@@H]1CC2(C)C [(E)-Caryophyllene, (E)-caryophyllene]",IC50,[1],> 30 µM
same,Fluorescence at max (%),[1]; [4],90 ± 3%
"C=C/C(C)=C/CC=C(C)C [β-Ocimene, β-ocimene]",IC50,[1],> 30 µM
same,Fluorescence at max (%),[1]; [4],90 ± 4%
CCCC/C=C\CCCCCCCCCCOC(C)=O [Z11-16: Ac],Ki,[1],4.2 µM and < 5 µM
same,IC50,[1],6.5 ± 1.2 µM
same,Fluorescence at max (%),[1]; [5],41 ± 4%
CCCCCCCCCCCCO [Dodecanol],Ki,[1],13 ± 0.4 µM
same,IC50,[1],19.5 ± 0.6 µM
same,Fluorescence at max (%),[1]; [4],49 ± 3%
CCCCCCCO [Heptanol],IC50,[1],> 30 µM
same,Fluorescence at max (%),[1]; [4],80 ± 2%
C=CC(=C)CC/C=C(\C)CCC=C(C)C [(E)-β-farnesene],IC50,[1],> 30 µM
same,Fluorescence at max (%),[1]; [4],75 ± 7%
CC/C=C\CC1C(=O)CCC1CC(=O)OC (centres unmarked) [Methyl jasmonate],IC50,[1],> 30 µM
same,Fluorescence at max (%),[1]; [4],70 ± 7%
COC(=O)c1ccccc1O [Methyl salicylate],IC50,[1],> 30 µM
same,Fluorescence at max (%),[1]; [4],79 ± 2%
C=CC(C)(O)CCC=C(C)C (centres unmarked) [Linalool],IC50,[1],> 30 µM
same,Fluorescence at max (%),[1]; [4],74 ± 6%
CCCCCCCC=O [Octanal],IC50,[1],> 30 µM
same,Fluorescence at max (%),[1]; [4],75 ± 2%
CCCCCCCCC=O [Nonanal],Ki,[2],6.8 µM
same,IC50,[1],> 30 µM
same,Fluorescence at max (%),[1]; [4],85 ± 2%
O=Cc1ccccc1 [Benzaldehyde],Ki,[2],9.4 µM
same,IC50,[1],> 30 µM
same,Fluorescence at max (%),[1]; [4],74 ± 3%
c1ccc2[nH]ccc2c1 [Indole],IC50,[1],> 30 µM
same,Fluorescence at max (%),[1]; [4],100 ± 8%
"CCC/C=C/COC(C)=O [(E)-2-Hexenyl acetate, (E)-2-hexenyl acetate]",IC50,[1],> 30 µM
same,Fluorescence at max (%),[1]; [4],69 ± 3%
CC/C=C\CC1=C(C)CCC1=O [(Z)-jasmone],IC50,[1],> 30 µM
same,Fluorescence at max (%),[1]; [4],75 ± 3%
CC/C=C\C[C@H]1C(=O)CC[C@@H]1CC(=O)O [Jasmonic acid],IC50,[1],> 30 µM
same,Fluorescence at max (%),[1]; [4],73 ± 5%
"C=C1CCC2CC1C2(C)C (stereo not drawn) [β-Pinene, β-pinene]",IC50,[1],> 30 µM
same,Fluorescence at max (%),[1]; [4],79 ± 9%
"C=CC(=C)CCC=C(C)C [β-Myrcene, β-myrcene]",Ki,[1],8 ± 0.3 µM
same,IC50,[1],12 ± 0.5 µM
same,Fluorescence at max (%),[1]; [4],45 ± 1.5%
"CCC/C=C/CO [(E)-2-Hexen-1-ol, (E)-2-hexen-1-ol]",IC50,[1],> 30 µM
same,Fluorescence at max (%),[1]; [4],69 ± 7%
CCCC/C=C\CCCCCCCCOC(C)=O [Z9-14: Ac],Ki,[1],4.9 µM and < 5 µM
same,IC50,[1],7.5 ± 0.9 µM
same,Fluorescence at max (%),[1]; [5],45 ± 3%
CCCCCCCCCC=O [Decanal],IC50,[1],> 30 µM
same,Fluorescence at max (%),[1]; [4],73 ± 7%
"c1ccc(Nc2cccc3ccccc23)cc1 [1-NPN, N-phenyl-1-naphthylamine]",Kd,[3],3.2 ± 0.19 µM
"CC/C=C\CCOC(C)=O [(Z)-3-Hexenyl acetate, (Z)-3-hexenyl acetate]",Ki,[2],4 µM
same,IC50,[1],> 30 µM
same,Fluorescence at max (%),[1]; [4],86 ± 2%
CC(=O)OCCc1ccccc1 [Phenylethyl acetate],Ki,[1],6.3 ± 0.3 µM
same,IC50,[1],10.5 ± 0.5 µM
same,Fluorescence at max (%),[1]; [4],39 ± 3%
"CCC/C=C/C=O [(E)-2-Hexenal, (E)-2-hexenal]",IC50,[1],> 30 µM
same,Fluorescence at max (%),[1]; [4],77 ± 3%
CC(C)=CCCC(C)=CC=O (mixture of isomers) [Citral],Ki,[2],5.6 µM
same,IC50,[1],> 30 µM
same,Fluorescence at max (%),[1]; [4],76 ± 5%
"CC/C=C\CCO [(Z)-3-Hexen-1-ol, (Z)-3-hexen-1-ol]",Ki,[2],8.5 µM
same,IC50,[1],> 30 µM
same,Fluorescence at max (%),[1]; [4],72 ± 3%
